{"source": "patent US4421754A", "about": "“Syndonimine derivatives, process for production thereof, and use thereof” (Hidaka; Hiroyoshi, priority 1981, dated 1983)", "key": {"mesenteric artery": {"test_system": "mesenteric artery", "experiment": "relaxing activity against contraction by KCl, extracted rabbit blood vessels (mesenteric artery)", "settings": "Oryctolagus cuniculus", "method": "(§1) (1) Activity on the extracted blood vessels of a rabbit\n(§2) A rabbit with a body weight of 2 to 3 kg was bled to death, and the thoracic aorta, mesenteric artery, renal artery, basilar artery and portal vein were extracted. Helical stripe specimens of these blood vessels were prepared. The specimens were suspended in a Magnus vessel, and the relaxing activity of the compound A against contraction of the specimens by KCl was examined. […] It is seen therefore that the compound A differs in activity from nitroglycerin having a strong relaxing activity on the veins, and has a strong relaxing activity on arteries, for example the coronary artery, the renal artery, etc.\n(§3) The inhibiting activity on human platelet aggregation and the relaxing activity on mesenteric artery (the artery being extracted from rabbits) of compounds B to G of the invention were also examined in the same way as in I, (1) and (2). The mesenteric artery relaxing activity was shown in terms of the concentration (μM) of each compound which was required to cause 50% of the maximum relaxation, and the platelet aggregation inhibiting activity, in terms of the concentration (μM) of each compound which was required to inhibit aggregation to an extent of 50%. The platelet aggregation inhibiting activities of these compounds agreed relatively well with their artery relaxing activities"}, "human platelet": {"test_system": "human platelet", "experiment": "inhibition of human platelet aggregation in PRP", "type": "cell-based", "source_text": "(2) Activity on human platelet\nPRP (platelet-rich plasma) was centrifugally separated from human blood to which sodium citrate had been added, and used as a sample. Collagen, adrenaline and adenosine diphosphate were used as substances causing platelet aggregation. The inhibitory effect of the compound A against platelet aggregation included by these substances was examined.\nas §3"}, "portal vein": {"test_system": "portal vein", "experiment": "relaxing activity against contraction by KCl, extracted rabbit blood vessels (portal vein)", "settings": "Oryctolagus cuniculus, helical stripe specimens, read-out: ED50 (relaxing activity against KCl contraction)", "method": "as §1, §2"}, "basilar artery": {"test_system": "basilar artery", "experiment": "relaxing activity against contraction by KCl, extracted rabbit blood vessels (basilar artery)", "settings": "Oryctolagus cuniculus, helical stripe specimens, read-out: ED50 (relaxing activity against KCl contraction)", "method": "as §1, §2"}, "coronary artery": {"test_system": "coronary artery", "experiment": "relaxing activity against contraction by KCl, extracted rabbit blood vessels (coronary artery)", "settings": "Oryctolagus cuniculus, helical stripe specimens, read-out: ED50 (relaxing activity against KCl contraction)", "method": "as §1, §2"}, "thoracic aorta": {"test_system": "thoracic aorta", "experiment": "relaxing activity against contraction by KCl, extracted rabbit blood vessels (thoracic aorta)", "settings": "Oryctolagus cuniculus, helical stripe specimens, read-out: ED50 (relaxing activity against KCl contraction)", "method": "as §1, §2"}, "renal artery": {"test_system": "renal artery", "experiment": "relaxing activity against contraction by KCl, extracted rabbit blood vessels (renal artery)", "settings": "Oryctolagus cuniculus, helical stripe specimens, read-out: ED50 (relaxing activity against KCl contraction)", "method": "as §1, §2"}, "[1]": {"experiment": "activity on the respiration, blood pressure, heart rate and blood flow rate of a dog", "type": "in vivo, dog (male Beagle)", "settings": "intravenous, pentobarbital anesthesia", "method": "(3) Activity on the respiration, blood pressure, heart rate and blood flow rate of a dog.\nThe test was carried out under pentobarbital anesthesia using a male Beagle dog having a body weight of about 10 kg. The respiration was measured by means of a pneumotachograph; the blood pressure, by inserting a cannula into the femoral artery; the heart rate, by a cardiotachometer; and the rate of blood flow, by means of an electromagnetic blood flow meter by mounting a measuring probe on the vertebral artery and the femoral artery.\nThe present compound A was intraveneously administered as a solution in physiological saline."}, "acute toxicity test": {"experiment": "acute toxicity test", "settings": "mouse, in vivo", "method": "An acute toxicity test was carried out by using male dd-strain mice (body weight 16 to 20 g)."}, "[2]": {"settings": "Table 1, artery extracted from rabbits, same way as in I (1), read-out: Mesenteric artery relaxing activity (concentration required to cause 50% of the maximum relaxation)"}, "[3]": {"settings": "Table 1, human platelets, inducing substance not stated, read-out: Platelet aggregation inhibiting activity (concentration required to inhibit aggregation to an extent of 50%)"}}, "note": "Read-outs that look alike come from different tables or passages of the source.", "data": [{"molecule": "CC(C)CC(CCCN1CCN([n+]2cc(=N)o[n-]2)CC1)C(=O)c1ccccc1", "note": "(centres unmarked) [compound G, 3-[4-(4-benzoyl-6-methylheptyl)piperazin-1-yl]-sydnonimine]", "values": [{"measurement": "EC50", "setting": "mesenteric artery; [2]", "value": 1300, "unit": "nM"}, {"measurement": "IC50", "setting": "human platelet; [3]", "value": 11000, "unit": "nM"}]}, {"molecule": "N=c1c[n+](N2CCN(CC(=O)c3ccccc3)CC2)[n-]o1", "note": "[compound B, 3-[4-(benzoylmethyl)piperazin-1-yl]sydnonimine]", "values": [{"measurement": "EC50", "setting": "mesenteric artery; [2]", "value": 160, "unit": "nM"}, {"measurement": "IC50", "setting": "human platelet; [3]", "value": 140, "unit": "nM"}]}, {"molecule": "N=c1c[n+](N2CCN(CCCC(=O)c3ccccc3)CC2)[n-]o1", "note": "[compound C, 3-[4-(3-benzoylpropyl)piperazin-1-yl]sydnonimine]", "values": [{"measurement": "EC50", "setting": "mesenteric artery; [2]", "value": 2300, "unit": "nM"}, {"measurement": "IC50", "setting": "human platelet; [3]", "value": 5400, "unit": "nM"}]}, {"molecule": "N=c1c[n+](N2CCN(CCCCC(=O)c3ccccc3)CC2)[n-]o1", "note": "[compound A, 3-[4-(4-Benzoylbutyl)piperazin-1-yl]sydnonimine]", "values": [{"measurement": "EC50", "setting": "portal vein", "value": 4000, "unit": "nM"}, {"measurement": "EC50", "setting": "basilar artery", "value": 1300, "unit": "nM"}, {"measurement": "EC50", "setting": "coronary artery", "value": 200, "unit": "nM"}, {"measurement": "EC50", "setting": "mesenteric artery; mesenteric artery, KCl contraction, helical stripe specimens, read-out: ED50 (relaxing activity against KCl contraction)", "value": 200, "unit": "nM"}, {"measurement": "EC50", "setting": "thoracic aorta", "value": 200, "unit": "nM"}, {"measurement": "EC50", "setting": "renal artery", "value": 100, "unit": "nM"}, {"measurement": "IC50", "setting": "human platelet; induced by adenosine diphosphate, human PRP, read-out: concentration which achieved a 50% inhibition of the platelet aggregation", "value": 1500, "unit": "nM"}, {"measurement": "IC50", "setting": "human platelet; induced by adrenaline, human PRP, read-out: concentration which achieved a 50% inhibition of the platelet aggregation", "value": 800, "unit": "nM"}, {"measurement": "IC50", "setting": "human platelet; induced by collagen, human PRP, read-out: concentration which achieved a 50% inhibition of the platelet aggregation", "value": 3400, "unit": "nM"}, {"measurement": "effect on respiration, blood pressure, heart rate and blood flow", "setting": "[1]; 10 μg/kg", "value": "No appreciable effect was seen"}, {"measurement": "blood pressure", "setting": "[1]; 100 μg/kg", "value": "slight degrees of a fall in blood pressure"}, {"measurement": "force of the pulse", "setting": "[1]; 100 μg/kg", "value": "a decrease in the force of the pulse"}, {"measurement": "blood pressure", "setting": "[1]; 500 μg/kg", "value": "a transient fall in blood pressure and a subsequent lasting fall in blood pressure"}, {"measurement": "rate of blood flow", "setting": "[1]; vertebral artery and femoral artery", "value": "tended to increase at the central part as compared with the peripheral part"}, {"measurement": "LD50", "setting": "acute toxicity test; sc, subcutaneous administration", "value": 350, "unit": "mg/kg"}, {"measurement": "LD50", "setting": "acute toxicity test; intravenous administration", "value": 91, "unit": "mg/kg"}, {"measurement": "LD50", "setting": "acute toxicity test; oral administration", "value": 750, "unit": "mg/kg"}]}, {"molecule": "N=c1c[n+](N2CCN(CCCCCCC(=O)c3ccccc3)CC2)[n-]o1", "note": "[compound E, 3-[4-(6-benzoylhexyl)piperazin-1-yl]sydnonimine]", "values": [{"measurement": "EC50", "setting": "mesenteric artery; [2]", "value": 120, "unit": "nM"}, {"measurement": "IC50", "setting": "human platelet; [3]", "value": 940, "unit": "nM"}]}, {"molecule": "N=c1c[n+](N2CCN(CCCCCCCCC(=O)c3ccccc3)CC2)[n-]o1", "note": "[compound F, 3-[4-(8-benzoyloctyl)piperazin-1-yl]sydnonimine]", "values": [{"measurement": "EC50", "setting": "mesenteric artery; [2]", "value": 58, "unit": "nM"}, {"measurement": "IC50", "setting": "human platelet; [3]", "value": 28, "unit": "nM"}]}, {"molecule": "N=c1c[n+](N2CCN(CCCCCC(=O)c3ccccc3)CC2)[n-]o1", "note": "[compound D, 3-[4-(5-benzoylpentyl)piperazin-1-yl]sydnonimine]", "values": [{"measurement": "EC50", "setting": "mesenteric artery; [2]", "value": 3000, "unit": "nM"}, {"measurement": "IC50", "setting": "human platelet; [3]", "value": 6300, "unit": "nM"}]}]}
